Drawing on PMC2697668 (Organic letters, 2009), this text covers IC50 for one molecule.

The target of the experiment is recombinant yeast Hsp90. Nature of the experiment: ATPase inhibition assay. The format is biochemical, Saccharomyces cerevisiae. The settings on record: read-out: ATPase; incubated with ATP.

As for `C[C@@H]1C[C@H]2O[C@@H]2/C=C\C=C\C(=O)Cc2c(Cl)c(O)cc(O)c2C(=O)O1` [RDC], the IC50 is 400 nM.
